Results published in patent US20260007684A1, “AMIDE DERIVATIVES FOR INHIBITING NLRP3 AND USES THEREOF” (Ventus Therapeutics U.S., Inc., priority 2023, published 2026).
pIC50: −log10 of the molar value.

Experiments:
[1] = target: T1, human NLRP3 (Homo sapiens (Human), UniProt Q96P20); experiment: Scintillation Proximity (SPA) NLRP3 Assay: displacement of 3H-MCC950; assay type: binding
[2] = target: T1, human NLRP3; experiment: Human PBMC NLRP3 Assay (LPS priming, ATP stimulation, cytokine measurement); assay type: cell-based
[3] = target: T1, human NLRP3; experiment: Human Whole Blood (hWB) NLRP3 Assay (LPS/ATP, IL-1β); assay type: cell-based
[4] = displacement of 3H-MCC950, read-out: SPA IC50
[5] = human PBMC, LPS priming, ATP stimulation, read-out: PBMC IC50
[6] = human whole blood, LPS/ATP, IL-1β, read-out: hWB IC50
[7] = hWB IC50, human whole blood, LPS/ATP, IL-1β

T1 sequence (Q96P20 whole entry): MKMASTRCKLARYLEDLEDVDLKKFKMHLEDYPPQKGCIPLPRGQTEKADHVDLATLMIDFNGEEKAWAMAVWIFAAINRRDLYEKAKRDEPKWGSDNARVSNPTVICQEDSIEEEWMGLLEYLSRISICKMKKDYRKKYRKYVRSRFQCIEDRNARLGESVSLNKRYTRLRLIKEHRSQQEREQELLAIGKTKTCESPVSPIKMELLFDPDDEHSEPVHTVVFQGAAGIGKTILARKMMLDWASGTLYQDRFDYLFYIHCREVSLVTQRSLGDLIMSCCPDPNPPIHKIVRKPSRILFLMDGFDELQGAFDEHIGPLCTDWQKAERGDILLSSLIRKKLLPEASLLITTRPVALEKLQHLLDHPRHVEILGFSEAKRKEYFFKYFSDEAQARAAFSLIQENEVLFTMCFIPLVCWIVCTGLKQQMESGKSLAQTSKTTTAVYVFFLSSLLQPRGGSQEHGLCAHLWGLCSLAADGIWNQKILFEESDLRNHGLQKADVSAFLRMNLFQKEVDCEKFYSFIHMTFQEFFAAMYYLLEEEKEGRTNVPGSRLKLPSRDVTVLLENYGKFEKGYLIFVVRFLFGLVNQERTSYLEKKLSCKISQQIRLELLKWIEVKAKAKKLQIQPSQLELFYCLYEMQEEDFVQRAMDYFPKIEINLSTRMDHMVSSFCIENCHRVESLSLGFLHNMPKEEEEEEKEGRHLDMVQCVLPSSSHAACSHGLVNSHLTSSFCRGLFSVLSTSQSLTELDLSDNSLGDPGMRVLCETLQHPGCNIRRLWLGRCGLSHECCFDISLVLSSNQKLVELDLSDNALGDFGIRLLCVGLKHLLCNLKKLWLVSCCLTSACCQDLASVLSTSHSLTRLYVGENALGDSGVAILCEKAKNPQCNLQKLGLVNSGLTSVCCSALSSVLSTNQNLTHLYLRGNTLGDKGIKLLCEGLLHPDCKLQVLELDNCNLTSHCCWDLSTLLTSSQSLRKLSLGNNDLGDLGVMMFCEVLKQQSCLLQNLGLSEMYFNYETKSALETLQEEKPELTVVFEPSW

| Compound | pIC50 [1, 4] | pIC50 [2, 5] | pIC50 [3, 6] | other results |
| --- | --- | --- | --- | --- |
| Cc1ccc(C2(C(=O)N[C@@H]3C[C@H](C)CCN(c4nnn[nH]4)C3)CC2)c(O)c1 (single isomer, unassigned) [67A*] | > 6.00 | > 8.00 | > 6.00 |  |
| C[C@H]1CC[C@@H](NC(=O)C2(c3ccc(Cl)cc3O)CC2)CN(c2nnn[nH]2)C1 (single isomer, unassigned) [90A*] | > 6.00 | > 8.00 | < 5.52 |  |
| C[C@@H]1CCN(c2nnn[nH]2)C[C@@H](NC(=O)C2(c3ccc(OC(F)(F)F)cc3O)CC2)C1 (single isomer, unassigned) [62B*] | > 6.00 | 7.00 to 8.00 | 5.70 to 6.00 |  |
| C[C@@H]1CCN(c2nnn[nH]2)C[C@H](NC(=O)C2(c3ccc(C(F)(F)F)c(F)c3)CC2)C1 (single isomer, unassigned) [66A*] | > 6.00 | > 8.00 | > 6.00 |  |
| C[C@@H]1C[C@@H](NC(=O)C2(c3ccc(C4CC4)cc3)CC2)[C@H]2CC[C@@H]1N2c1nnn[nH]1 [81A*, 1-(4-cyclopropylphenyl)-N-((1R,2R,4R,5S)-4-methy1-8-(1H-tetrazol-5-yl)-8-azabicyclo[3.2.1]octan-2-yl)cyclopropane-1-carboxamide] | > 6.00 |  |  | pIC50 ([2]; PBMC IC50, human PBMC, LPS priming, ATP stimulation): 7.00 to 8.00; pIC50 [3, 7]: > 6.00 |
| C[C@@H]1CCN(c2nnn[nH]2)C[C@@H](NC(=O)C2(c3ccc(C(F)(F)F)cc3O)CC2)C1 (single isomer, unassigned) [63B*] | > 6.00 | 7.00 to 8.00 | > 6.00 |  |
| C[C@@H]1CCN(c2nnn[nH]2)C[C@H](NC(=O)C2(c3ccc(OC(F)(F)F)c(F)c3O)CC2)C1 (single isomer, unassigned) [28A*, 1-(3-fluoro-2-hydroxy-4-(trifluoromethoxy)phenyl)-N-(5-methyl-1-(1H-tetrazol-5-yl)azepan-3-yl)cyclopropane-1-carboxamide] | > 6.00 | 7.00 to 8.00 | < 5.52 |  |
| CN(C(=O)C1(c2ccc(Cl)cc2)CC1)c1cccc(-c2nnn[nH]2)c1 [Comparative Example B2, N-(3-(1H-tetrazol-5-yl)phenyl)-1-(4-chlorophenyl)-N-methylcyclopropane-1-carboxamide, reference compound] |  |  |  | pIC50 ([1]; read-out: SPA IC50): 3.70; pIC50 ([3]; read-out: hWB IC50): < 4.30 |
| C[C@@H]1C[C@H](NC(=O)C2(c3ccc(OC(F)F)cc3O)CC2)[C@H]2CC[C@@H]1N2c1nnn[nH]1 [43B*, N-((1R,2S,4R,5S)-4-methy1-8-(1H-tetrazol-5-yl)-8-azabicyclo[3.2.1]octan-2-yl)-1-(4-(difluoromethoxy)-2-hydroxyphenyl)cyclopropane-1-carboxamide] | > 6.00 |  | < 5.52 |  |
| O=C(N[C@@H]1C[C@@H](C(F)(F)F)[C@@H]2CC[C@H]1N2c1nnn[nH]1)C1(c2ccc(Cl)cc2)CC1 (single isomer, unassigned) [103A*] |  |  |  | pIC50 ([1]; SPA IC50, displacement of 3H-MCC950): > 6.00; pIC50 [3, 7]: > 6.00 |
| O=C(N[C@@H]1CCN(c2nnn[nH]2)C1)C1(c2ccc(Cl)cc2)CC1 (single isomer, unassigned) [Comparative Example A*, reference compound] |  |  |  | pIC50 ([1]; read-out: SPA IC50): 3.38; pIC50 ([3]; read-out: hWB IC50): < 4.30 |
| C[C@@H]1C[C@@H](NC(=O)C2(c3ccc(OC(F)F)cc3F)CC2)[C@H]2CC[C@@H]1N2c1nnn[nH]1 (stereo in doubt) [Compound 101A, 1-(4-(difluoromethoxy)-2-fluorophenyl)-N-(4-methyl-8-(1H-tetrazol-5-yl)-8-azabicyclo[3.2.1]octan-2-yl)cyclopropane-1-carboxamide] | > 6.00 |  |  | pIC50 [3, 7]: > 6.00 |
| C[C@H]1C[C@@H]2CC[C@H]([C@H](NC(=O)C3(c4ccc(C(F)(F)F)cc4)CC3)C1)N2c1nnn[nH]1 [104A*, N-((1R,2R,4R,6S)-4-methyl-9-(1H-tetrazol-5-yl)-9-azabicyclo[4.2.1]nonan-2-yl)-1-(4-(trifluoromethyl)phenyl)cyclopropane-1-carboxamide] | > 6.00 |  |  | pIC50 [3, 7]: 5.52 to 5.70 |
| C[C@H]1C[C@@H](NC(=O)C2(c3ccc(C(F)F)cc3O)CC2)CN(c2nnn[nH]2)C1 [Compound 48A, 1-(4-(difluoromethyl)-2-hydroxyphenyl)-N-((3R,5S)-5-methyl-1-(1H-tetrazol-5-yl)piperidin-3-yl)cyclopropane-1-carboxamide] | > 6.00 |  | > 6.00 |  |
| O=C(N[C@@H]1CCCCN(c2nnn[nH]2)C1)C1(c2ccc(Cl)cc2O)CC1 [Compound 52A, (R)-N-(1-(1H-tetrazol-5-yl)azepan-3-yl)-1-(4-chloro-2-hydroxyphenyl)cyclopropane-1-carboxamide] | > 6.00 |  | > 6.00 | pIC50 ([1]; read-out: SPA IC50): 7.10; pIC50 ([3]; read-out: hWB IC50): 6.59 |
| C[C@@H]1CC(NC(=O)C2(c3ccc(OC(F)F)cc3O)CC2)[C@H]2CC[C@@H]1N2c1nnn[nH]1 (single isomer, unassigned) [43A*] | > 6.00 |  |  | pIC50 [3, 7]: > 6.00 |
| Cc1ccc(C2(C(=O)N[C@@H]3C[C@H](C)CCN(c4nnn[nH]4)C3)CC2)c(O)c1F (single isomer, unassigned) [22A*, 1-(3-fluoro-2-hydroxy-4-methylphenyl)-N-(5-methyl-1-(1H-tetrazol-5-yl)azepan-3-yl)cyclopropane-1-carboxamide] |  | > 8.00 | > 6.00 |  |

| Compound | pIC50 [1, 4] | pIC50 [2, 5] | pIC50 [3, 6] | other results |
| --- | --- | --- | --- | --- |
| C[C@H]1CCN(c2nnn[nH]2)C[C@H](NC(=O)C2(c3ccc(Cl)c(F)c3O)CC2)C1 (single isomer, unassigned) [18C*, 1-(4-chloro-3-fluoro-2-hydroxyphenyl)-N-(5-methyl-1-(1H-tetrazol-5-yl)azepan-3-yl)cyclopropane-1-carboxamide] | 4.30 to 5.00 | 6.30 to 7.00 |  |  |
| C[C@@H]1C[C@H]2CC[C@@H]([C@H](NC(=O)C3(c4ccc(C(F)(F)F)cc4)CC3)C1)N2c1nnn[nH]1 [104C*, N-((1S,2R,4S,6R)-4-methyl-9-(1H-tetrazol-5-yl)-9-azabicyclo[4.2.1]nonan-2-yl)-1-(4-(trifluoromethyl)phenyl)cyclopropane-1-carboxamide] | > 6.00 |  |  | pIC50 [3, 7]: > 6.00 |
| C[C@@H]1CCN(c2nnn[nH]2)C[C@H](NC(=O)C2(c3ccc(Cl)c(F)c3)CC2)C1 (single isomer, unassigned) [65A*] | > 6.00 | 7.00 to 8.00 |  |  |
| C[C@H]1CC[C@H](NC(=O)C2(c3ccc(Cl)cc3O)CC2)CN(c2nnn[nH]2)C1 (single isomer, unassigned) [90B*] | > 6.00 | 7.00 to 8.00 |  |  |
| C[C@@H]1CCN(c2nnn[nH]2)C[C@H](NC(=O)C2(c3ccc(OC(F)F)c(F)c3)CC2)C1 (single isomer, unassigned) [73A*] | > 6.00 | 7.00 to 8.00 |  |  |
| C[C@H]1CCN(c2nnn[nH]2)C[C@@H](NC(=O)C2(c3ccc(Cl)c(F)c3O)CC2)C1 (single isomer, unassigned) [18D*, 1-(4-chloro-3-fluoro-2-hydroxyphenyl)-N-(5-methyl-1-(1H-tetrazol-5-yl)azepan-3-yl)cyclopropane-1-carboxamide] | > 6.00 | 6.30 to 7.00 |  |  |
| C[C@@H]1CCN(c2nnn[nH]2)C[C@H](NC(=O)C2(c3ccc(C4CC4)cc3)CC2)C1 (single isomer, unassigned) [2A*] | > 6.00 | 7.00 to 8.00 |  |  |
| C[C@@H]1CCN(c2nnn[nH]2)C[C@H](NC(=O)C2(c3ccc(OC(F)F)cc3F)CC2)C1 (single isomer, unassigned) [3A*] | > 6.00 | 7.00 to 8.00 |  |  |
| C[C@@H]1CCN(c2nnn[nH]2)C[C@H](NC(=O)C2(c3ccc(C(F)(F)F)c(OC(F)F)c3)CC2)C1 (single isomer, unassigned) [54A*] | > 6.00 | 7.00 to 8.00 |  |  |
| CC1(C)C[C@@H](NC(=O)C2(c3ccc(Cl)cc3O)CC2)CN(c2nnn[nH]2)C1 (single isomer, unassigned) [42A*] | > 6.00 | > 8.00 |  | pIC50 ([1]; read-out: SPA IC50): 7.33; pIC50 ([2]; read-out: PBMC IC50): 8.24 |
| COc1cc(F)c(C2(C(=O)N[C@@H]3C[C@@H](C)[C@@H]4CC[C@H]3N4c3nnn[nH]3)CC2)c(F)c1 (single isomer, unassigned) [102A*] | > 6.00 |  |  | pIC50 [3, 7]: > 6.00 |
| O=C(Nc1cccc(-c2ccccc2)c1)C1(c2ccc(Cl)cc2)CC1 [Comparative Example D, N-([1,1′-biphenyl]-3-yl)-1-(4-chlorophenyl)cyclopropane-1-carboxamide, reference compound] |  |  |  | pIC50 ([1]; read-out: SPA IC50): 3.49; pIC50 ([3]; read-out: hWB IC50): < 4.30 |
| C[C@@H]1CCN(c2nnn[nH]2)C[C@H](NC(=O)C2(c3ccc(SC(F)(F)F)cc3)CC2)C1 (single isomer, unassigned) [69A*] | > 6.00 | 7.00 to 8.00 |  |  |
| C[C@@H]1C[C@@H](NC(=O)C2(c3ccc(C4CC4(F)F)cc3)CC2)[C@H]2CC[C@@H]1N2c1nnn[nH]1 (single isomer, unassigned) [37A*] | > 6.00 |  |  | pIC50 [3, 7]: 5.70 to 6.00 |
| C[C@@H]1CCN(c2nnn[nH]2)C[C@H](NC(=O)C2(c3ccc(C4CC4)c(F)c3O)CC2)C1 (single isomer, unassigned) [32A*, 1-(4-cyclopropyl-3-fluoro-2-hydroxyphenyl)-N-(5-methyl-1-(1H-tetrazol-5-yl)azepan-3-yl)cyclopropane-1-carboxamide] | > 6.00 | > 8.00 |  |  |
| C[C@H]1C[C@@H](NC(=O)C2(c3ccc(OC(F)F)cc3)CC2)[C@H]2CC[C@@H]1N2c1nnn[nH]1 (single isomer, unassigned) [35E*] | 5.00 to 6.00 |  | < 5.52 |  |
| C[C@@H]1CCN(c2nnn[nH]2)C[C@H](NC(=O)C2(c3ccc(C(F)F)cc3)CC2)C1 (single isomer, unassigned) [5A*, 1-(4-(difluoromethyl)phenyl)-N-(5-methyl-1-(1H-tetrazol-5-yl)azepan-3-yl)cyclopropane-1-carboxamide] | > 6.00 | 7.00 to 8.00 |  |  |
